From US20120202756A1, “USE OF PRODRUGS TO AVOID GI MEDIATED ADVERSE EVENTS” (priority 2009, published 2012)
≈ marks a conversion by molar mass, not a printed value.

Legend:
Assay in all cases: microbe, parasite or virus in culture
[1] = tested on: Porphyromonas assacharolyticus; settings: read-out: Minimum inhibitory concentration
Fusobacterium nucleatum = settings: read-out: Minimum inhibitory concentration
[2] = tested on: Staphylococcus saprophyticus; settings: read-out: Minimum inhibitory concentration
Prevotella denticola = settings: read-out: Minimum inhibitory concentration
Group G Streptococcus = settings: read-out: Minimum inhibitory concentration
Listeria monocytogenes = settings: read-out: Minimum inhibitory concentration
Corynebacterium jeikeium = settings: read-out: Minimum inhibitory concentration
Streptococcus agalactiae = settings: read-out: Minimum inhibitory concentration
Prevotella oralis = settings: Hoylesella oralis, read-out: Minimum inhibitory concentration
Prevotella intermedia = settings: read-out: Minimum inhibitory concentration

Question: For `CCC[C@@H]1C[C@@H](C(=O)N[C@@H]([C@H]2O[C@H](SC)[C@H](O)[C@@H](O)[C@H]2O)[C@H](C)Cl)N(C)C1` [Clindamycin, clindamycin, reference compound], which MIC [1] is on record?
Answer: ≤ 0.03 µg/mL

Question: And the MIC (Fusobacterium nucleatum)?
Answer: ≤ 0.03 µg/mL

Question: What about the MIC [2] of the same compound?
Answer: 0.06 µg/mL (≈ 0.141 µM)

Question: What about the MIC (Prevotella denticola) of the same compound?
Answer: ≤ 0.03 µg/mL

Question: And the MIC (Group G Streptococcus)?
Answer: ≤ 0.03 µg/mL

Question: What about the MIC (Listeria monocytogenes) of the same compound?
Answer: 1 µg/mL (≈ 2.35 µM)

Question: What about the MIC (Corynebacterium jeikeium) of the same compound?
Answer: > 64 µg/mL

Question: What about the MIC (Streptococcus agalactiae) of the same compound?
Answer: ≤ 0.03 µg/mL

Question: And the MIC (Prevotella oralis)?
Answer: ≤ 0.03 µg/mL

Question: What about the MIC (Prevotella intermedia) of the same compound?
Answer: ≤ 0.03 µg/mL
